Reference: PubChem BioAssay AID463074 (Broad Institute, 2010)
Activity calls are given as the source filed them.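 The calls were made as follows: active = AC50 no more than tenfold above the top dose tested, or full inhibition at every dose with a flat fit (cut at about 19 µM in these data); inconclusive = flat curve fit with inhibition between 30% and 70%, or poor fit; inactive = AC50 more than tenfold above the top dose tested.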

Test system: HMLE_sh_eGFP viability, CellTiter-Glo luminescence, 72 h
Assay: viability loss of HMLE_sh_eGFP cells – cell-based, luminescence, counter-screen for HMLE_sh_ECad selective toxicity project, dose response (AID 463074);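 also: counterscreen control line to flag general toxicity for the HMLE_sh_ECad screen; potency for loss of viability as luminescence drops below DMSO wells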

SMILES	AC50
O=C1CC(=C(c2ccccc2)c2ccccc2)C(=O)N1CCCCN1CCN(c2cccc(Cl)c2)CC1	2.02 µM
COc1ccc(-c2sc3ccc(OC)cc3c2C#CCCO)cc1	7.27 µM
COc1cc(NC(=O)c2cc3ccccc3cc2O)c(OC)cc1Cl	1.17 µM
O=C(Nc1ccc(Cl)cc1)Nc1nnc(-c2ccncc2)s1	2.42 µM
NC(=O)CC(NC(=O)Cc1cccc2ccccc12)c1ccc(NC2CCCCCCC2)c([N+](=O)[O-])c1 (stereo unspecified)	12 µM
CC(C)N(CCC(=O)c1ccc2ccccc2c1)Cc1ccccc1	9.86 µM
O=C(Cc1ccc(F)cc1)Nc1nnc(SCC(=O)N2CCCCC2)s1	> 19.5 µM (inactive)
O=S(=O)(NCc1ccncc1)c1ccc(S(=O)(=O)NCC2CCCO2)cc1 (stereo unspecified)	> 19.5 µM (inactive)
N#CC(C#N)=C(C#N)c1ccc(Nc2ccccc2)cc1	3.14 µM
O=C(Nc1ccc2nc3n(c(=O)c2c1)CCCCC3)c1cc([N+](=O)[O-])ccc1F	6.62 µM
O=C(COc1ccccc1-c1ccccc1)N/N=C/c1cccc2ccccc12	0.608 µM
COc1cc(NS(C)(=O)=O)ccc1Nc1c2ccccc2nc2ccccc12	2.11 µM
Oc1ccc(/C=N/Nc2ncc(Br)cn2)c(O)c1	5.8 µM
O=C(Nc1cc(S(=O)(=O)Nc2ccc(Cl)cc2)ccc1N1CCCCC1)c1ccc(F)cc1Cl	5.37 µM
O=C(Nc1cccc(Cl)c1)Nc1cc(S(=O)(=O)N2CCCCC2)ccc1Cl	2.82 µM
CCOC(=O)/C(=C\c1ccc(Cl)cc1)c1nc2sc(C)c(C)c2c(=O)[nH]1	1.54 µM
O=C(N/N=C/c1cn(-c2cccs2)nc1-c1ccccc1)c1ccc(O)cc1	7.76 µM
OC(COc1ccc2ccccc2c1Br)Cn1cnc(-c2ccccc2)c1 (stereo unspecified)	6.05 µM
CC1CCN(S(=O)(=O)c2ccc3c(c2)C(=NO)c2cc(S(=O)(=O)N4CCC(C)CC4)ccc2-3)CC1	1.01 µM
O=C(NC(=S)Nc1cccc(Cl)c1N1CCCCC1)c1cccs1	6.92 µM
O=C(/C=C/c1ccccc1)/C=C/c1ccccc1	2.84 µM
O=C1c2ccccc2NC(c2ccc(-c3ccc(Br)cc3)o2)N1O (stereo unspecified)	5.06 µM

SMILES	AC50
COc1cccc(-c2sc3ccccc3c2-c2ccc(OCCN3CCCCC3)cc2)c1	1.41 µM
COc1ccc(-c2sc3ccc(N4CCOCC4)cc3c2C#CC(C)(C)O)cc1	1.3 µM
CCCCCNCC(=O)Nc1cccc(C(=O)Nc2cccc(C(F)(F)F)c2)c1	13.2 µM
CCN1CCN(CCCOc2ccc(-c3ccccc3)cc2)CC1	5.67 µM
O=c1/c(=C\c2cccc(O)c2)sc2nc(-c3ccccc3)c(-c3ccccc3)n12	6.21 µM
N#CC1=C(N)N2C(=C(C#N)C1c1ccc(Br)cc1)Nc1ccccc12 (stereo unspecified)	2.99 µM
C[C@H]1CN([C@@H](C)CO)C(=O)Cc2cc(NC(=O)CCC(F)(F)F)ccc2O[C@H]1CN(C)Cc1ccc(-c2ccccc2)cc1	6.9 µM
O=C(Nc1ccc(Cl)c(Cl)c1)Nc1ccccc1O	12.4 µM
C[C@H]1CCC/C=C/[C@@H]2C[C@H](O)C[C@H]2[C@H](O)/C=C/C(=O)O1	< 0.16 µM
O=C(N/N=C/c1cc(Cl)ccc1O)c1ccc(Br)cc1	4.41 µM
N#Cc1c(N)nc2c(c1-c1cccc(O)c1)CCCCCC2	16.3 µM
Clc1cccc(CN2CCc3c([nH]c4ccccc34)C2)c1Cl	6.15 µM
COc1ccc2sc(-c3ccc(SC)cc3)c(C#CC(C)(C)O)c2c1	6.66 µM
c1cn2c(NC3CCCCC3)c(-c3ccc(SC4CCCCC4)cc3)nc2cn1	3.26 µM
Nc1c(C(O)(C(F)(F)F)C(F)(F)F)cc(C(O)(C(F)(F)F)C(F)(F)F)c2ccccc12	3.95 µM
CN(C)CCNc1nc2sc3c(c2c(=O)n1CCc1ccccc1)CCCCC3	7.1 µM
Cc1cccc(NC(=O)c2nc[nH]c2C(=O)N[C@@H](C)c2ccccc2)c1	12 µM
Cc1ccc(C=Nc2ccccc2C(N)=O)s1	2.79 µM
CCCC(O)(c1ccc(Cl)cc1)C(CN1CCOCC1)c1ccc(Cl)cc1 (stereo unspecified)	9.47 µM
CCCCCCSc1ccc(-c2nc3ccccn3c2NCCCC)cc1	6.98 µM
O=C1c2c(Br)c(Br)c(Br)c(Br)c2C(=O)N1c1ccccn1	3.65 µM
C=C[C@@H]1c2cc(C)ccc2N(S(=O)(=O)c2ccc(C)cc2)[C@H](c2ccc(OC(C)=O)cc2)C1(C#N)C#N	1.3 µM

SMILES	AC50
Cc1ccc(NC(=O)c2nc(S(=O)(=O)Cc3ccccc3C)ncc2Cl)cc1C	7.64 µM
CC(C)c1ccc(NC(=O)C(c2ccccc2)N(C)C(=O)CCc2c[nH]c3ccccc23)cc1 (stereo unspecified)	7.92 µM
CCCc1nc2ccccc2c(C(=O)OCC(=O)Nc2ccc(S(=O)(=O)N3CCOCC3)cc2)c1CC	5.86 µM
O=c1[nH]c(NNC(=S)NCc2ccccc2)nc2c1C1(CCCCC1)Cc1ccccc1-2	3.91 µM
O=C(CS(=O)c1ccc(C(F)(F)F)cc1[N+](=O)[O-])Oc1ccccc1 (stereo unspecified)	5.22 µM
Cc1oc2c(c1C(=O)N1CCC(C)CC1)C(=O)c1ccccc1C2=O	7.99 µM
O=S(=O)(c1ccc(Cl)cc1)N1CCN(Cc2ccc(O)c3ncccc23)CC1	6.21 µM
Oc1ccccc1/C=N/Nc1nccnc1Cl	5.91 µM
Cc1ccc(NC(=O)CN(C)C(=O)Cn2ncc(Cl)c(Cl)c2=O)cc1	4.22 µM
Cc1cc(C)c(C(CC(=O)c2cccs2)C(C#N)C#N)c(C)c1 (stereo unspecified)	5.9 µM
Cc1c(C(=O)c2cccc3ccccc23)c2cccc3c2n1[C@H](CN1CCOCC1)CO3	3.66 µM
Cc1nn(CCc2nn[nH]n2)c2nc(-c3ccc(C4CCCCC4)cc3)cc(C(F)(F)F)c12	2.7 µM
C[C@]12CC[C@H]3[C@@H](CC[C@]4(O)C[C@@H](O)CC[C@]34C=O)[C@@]1(O)CC[C@@H]2C1=CC(=O)OC1	0.446 µM
Cc1c(C2(O)CCCCC2)[nH]c2ccc(C(F)(F)F)cc12	6.11 µM
CCCCc1ccc(NC(=O)CSc2nc(=O)n(CCN(CC)CC)c3c2CCC3)cc1	9.97 µM
CS(=O)(=O)Nc1ccccc1C(=O)Nc1cccc(Cl)c1	> 19.5 µM (inactive)
Cc1ccc2nc(Cl)c3cc(C(=O)N(CCN(C)C)Cc4ccco4)sc3c2c1	3.53 µM
COC(=O)c1ccc(/C=C/c2c(-c3ccsc3)sc3ccccc23)cc1	7.46 µM
Oc1ccc(CCNc2ncnc3ccc(Cl)cc23)cc1	7.91 µM
S=C(Nc1ccccc1Cl)N1CCCC(c2ccccc2)=N1	8.88 µM
CCCCCc1ccc(OCCCC[n+]2cccc(C)c2)c(CCCCC)c1	7.42 µM
Cc1cc(C)c2sc(N(CCCN(C)C)C(=O)c3ccc(S(=O)(=O)N4CCCc5ccccc54)cc3)nc2c1	3.73 µM

SMILES	AC50
S=C(NCC1CCCCC1)Nc1ccc(Oc2ccccc2)cc1	5.41 µM
CCS(=O)(=O)Nc1ccc(-c2cc(-c3ccccc3)c3cc(C)ccc3n2)cc1	3.85 µM
O=C(Oc1ccc(-c2nc(-c3ccccn3)no2)cc1)c1ccccc1	1.63 µM
CCN1CCN(c2cc(-c3ccccc3)nc3cc(-c4cccc(F)c4)nn23)CC1	5.65 µM
COc1ccccc1CNC(=S)Nc1ccc2nc(N3CCN(C)CC3)cc(C)c2c1	0.427 µM
Cc1cccc(Nc2nc(N)c([N+](=O)[O-])c(N3CC(C)CC(C)C3)n2)c1 (stereo unspecified)	6.75 µM
Cc1ccc(C(C)C)c(OCc2nn(CC(=O)c3ccc(Cl)cc3)c3[n+]2CCCCC3)c1	3.22 µM
CC(=O)c1ccc(N2CCN(c3ccc(S(=O)(=O)NCCCN(C)C)cc3[N+](=O)[O-])CC2)cc1	2.92 µM
CN1CCN(c2ccc(NC(=O)COc3ccc(Cl)cc3Cl)cc2)CC1	5.38 µM
COc1ccc(N=C2NN=C(c3c(C)[nH]c4ccccc34)CS2)cc1	7.77 µM
Cc1ccc(C(=O)ONc2ccc(N=NC(=O)c3ccccc3O)cc2)cc1	3.56 µM
CC1CCC2C(=O)N(c3ccc(NC4CCCCC4)c([N+](=O)[O-])c3)C(=O)C2C1 (stereo unspecified)	4.01 µM
Cc1ccc(NS(=O)(=O)c2ccc(Cl)c(C(=O)Nc3ccccc3-c3nc4ccccc4[nH]3)c2)cc1C	1.48 µM
O=C(Nc1nc(-c2cccs2)cs1)c1ccc([N+](=O)[O-])o1	3.18 µM
CC1(C)C=Cc2c(ccc3c2OC[C@@H](c2ccc(O)cc2O)C3)O1	7.27 µM
Cc1cc(N2CCN(C)CC2)nc2ccc(NC(=S)N3CCN(c4ccc(F)cc4)CC3)cc12	5.94 µM
Cc1cccc(C)c1N=Nc1c(C)cc(O)cc1C	7.2 µM
Cc1nnc2sc(SCc3cccc(Cl)c3)nn2c1=O	> 19.5 µM (inactive)
Cc1cc(=O)[nH]c(N/N=C/c2ccc(-c3ccc(F)cc3)o2)n1	18.1 µM
CC1=NOC(=O)/C1=C\c1ccc(-c2cc(Cl)ccc2Cl)o1	1.06 µM
COC(=O)c1ccc(COc2ccccc2/C=C(\C#N)C(=O)Nc2c(C)cc(C)cc2C)cc1	2.08 µM
NC1=NC[C@@H](CC2CCCCC2)N1CCc1cc(C(F)(F)F)cc(C(F)(F)F)c1	2.74 µM

SMILES	AC50
CCCS(=O)(=O)c1c(S(=O)(=O)CCC)c2c(C)cccn2c1C(=O)N/N=C/c1cc(O)cc(O)c1	1.72 µM
O=C(Nc1cnn(C23CC4CC(CC(C4)C2)C3)c1)c1cc(-c2ccccc2)on1	11.4 µM
Cc1ccc(C(=O)NC(=C(Cl)Cl)S(=O)(=O)c2ccc(C)cc2)cc1	5.16 µM
COc1cc2ccccc2cc1C(=O)Nc1ccccc1Cl	7.94 µM
COc1cccc(/C=C/C(=O)c2ccc(NS(=O)(=O)c3ccc(C)cc3)cc2)c1	3.22 µM
NC(=O)CC(NC(=O)Cc1ccc(Br)cc1)c1ccc(NC2CCCCCC2)c([N+](=O)[O-])c1 (stereo unspecified)	4.88 µM
Cn1cccc1/C=C1/C(=O)NC(=S)N(Cc2ccc(F)cc2)C1=O	1.7 µM
Cc1ccnc(NC(=O)CSc2cc(=O)n(C)c3ccccc23)c1	8.16 µM
CC/C(=N\Nc1ccccc1)c1c(O)n(-c2ccc(OC)cc2)c(=O)[nH]c1=O	2.13 µM
CCc1ccc(N2C(=O)NC(=O)/C(=C\C=C\c3ccco3)C2=O)cc1	3.72 µM
C=CCn1c(SCc2c(C)noc2C)nc2sc3c(c2c1=O)CCCCC3	1.42 µM
Cc1ccc2nc(-c3ccccn3)c(Nc3ccccc3C)n2c1	5.04 µM
N#CC1=C(SCC(=O)c2ccc(Cl)cc2)NC2=C(C(=O)CCC2)C1c1ccco1 (stereo unspecified)	3.57 µM
CCOC(=O)c1c2ccc(OCC(=O)N/N=C/c3ccc(C)cc3)cc2n2ccccc12	11.8 µM
COc1cc(N/N=C(\C)c2ccc(O)c(C)c2)nc(-c2ccccc2)n1	4.75 µM
COc1ccc(C(c2c[nH]c3ccccc23)c2c[nH]c3ccccc23)cc1O	4.62 µM
COCCNC(=O)CN(C(=O)CCC(=O)Nc1ccccn1)c1ccc(C)cc1	> 19.5 µM (inactive)
CCCCn1c(SCC(N)=O)nc2sc3c(c2c1=O)CCC3	> 19.5 µM (inactive)
